Assay [1] concerns mouse epidermal cell culture. Kind of assay: mouse epidermal cell culture, cell proliferation by uptake of tritiated thymidine into DNA. In kind it is cell-based. Conditions: for percentage uptake in comparison to the standards (TRA, CRA): all time points; for activity at 12 µg/mL: Mus musculus, read-out: percentage uptake of tritiated thymidine relative to vehicle control (100%).

Assay [2] deals with mouse epidermal cell culture. Kind of assay: mouse epidermal cell culture, anti-differentiation activity (Kreyberg staining and nuclei enumeration). On the set-up: key to culture staining by the Kreyberg technique, score (maximum differentiation 10): Kreyberg staining score; 10 = maximum differentiation; key to nuclei enumeration, score (maximum differentiation 0): nuclei enumeration score; 0 = maximum differentiation. Conditions: 12 ug/ml; for culture staining by the Kreyberg technique, score (maximum differentiation 10): first number of the ratio; for nuclei enumeration, score (maximum differentiation 0): second number of the ratio. In kind it is cell-based. An excerpt:
(§1) Compounds of this invention are active against various skin disorders, such as acne and psoriasis, when tested according to models considered to be predictive of the clinical condition in humans. The models used were the rhino mouse procedure (Kligman, et al., J. Investigative Dermatology 73, 354 (1979)), the rabbit comedolytic procedure (Mills O. H., Kligman A. M.: Assay of Comedolytic Agents in the Rabbit Ear, Animal Models in Dermatology; Relevance to Human Dermatopharmacology and Dermatotoxicology,edited by H. I. Maibach, New York Churchill-Livingston, 1975, pp. 176-183) and the mouse epidermal cell culture procedure (Marcelo, et al., J. Cell Biol., 79, 356 (1978). Testing was done comparatively against standard retinoids known to be effective in these disorders and against a known α-methyl retinoid (2,7-dimethyl-9-(2,6,6-trimethyl-1-cyclohexene-1-yl)-2,3,6,8-nonatetraenoic acid, referred to as DTCNA).
The ratios in the table represent scoring of two measured parameters, culture staining by the Kreyberg technique (maximum differentiation 10) and nuclei enumeration (maximum differentiation 0). Thus the highest possible anti-differentiative activity would be given by the ratio 0/10.

In assay [3] the test system is 5-Lipoxygenese pathway (LOX, Rat PMN). Kind of assay: lipoxygenase pathway inhibition assay (14C-arachidonic acid oxidation by neutrophil homogenate). It is filed as biochemical. As to conditions: concentration required for inhibition of the 5-Lipoxygenese pathway; read-out: LOX, Rat PMN (I50).
Another assay has as its system rabbit ear comedones. Put plainly: rabbit comedolytic procedure (rabbit ear model). It is filed as in vivo. As to conditions: concentration of 0.05%, compared with TRA.
Description: as §1
(§2) Activity equal to or greater than the standards and the known compound was shown by 2,5,9-trimethyl-11-(2,6,6-trimethyl-1-cyclohexene-1-yl)-2,4,6,8,10-undecapentaenoic acid (TTCUA).

Assay [4] concerns rhino mouse utriculi (pseudocomedones). Put plainly: rhino mouse procedure. In kind it is in vivo. As to conditions: rhino mouse model, concentration 0.05%.
Description: as §1, §2

Setting [5] is: 72 h, 12 ug/ml, day 3 of culture exposure to drug.
[6] abbreviates: 120 h, 12 ug/ml, day 5 of culture exposure to drug.
Setting [7] is: 240 h, 12 ug/ml, day 10 of culture exposure to drug.

Read-outs that look alike come from different tables or passages of the source.

On to `CC1=C(/C=C/C(C)=C/C=C/C(C)=C\C(=O)O)C(C)(C)CCC1` [CRA], for which the “percentage uptake of tritiated thymidine relative to vehicle control (100%)” value in assay [1] (12 ug/ml, day 3 of culture exposure to drug) is reported as 47%; in assay [1] (12 ug/ml, day 5 of culture exposure to drug) it was 75%; in assay [1] (12 ug/ml, day 10 of culture exposure to drug) it was 64%. Besides, the “culture staining by the Kreyberg technique, score (maximum differentiation 10)” value (from here on “culture staining … (maximum differentiation 10)”) in assay [2] (day 3), in assay [2] (day 6) and in assay [2] (day 10) was 2 each time. Also, the “nuclei enumeration, score (maximum differentiation 0)” value in assay [2] (day 3) stood at 7; in assay [2] (day 6), 7; in assay [2] (day 10) it was 6.5.
For the molecule `CC(C=CC1=C(C)CCCC1(C)C)=CC=CC=C(C)C(=O)O` [DTCNA], the “percentage uptake in comparison to the standards (TRA, CRA)” value in assay [1] (12 ug/ml) is reported as “about the same”. The activity at 12 µg/mL in assay [1] (setting [5]) is 53%; in assay [1] (setting [6]), 61%; in assay [1] (setting [7]) it was 60%. Besides, the entries for the “culture staining … (maximum differentiation 10)” value in assay [2] (day 3), in assay [2] (day 6) and in assay [2] (day 10) were 3, 2 and 2, respectively. Further, the “nuclei enumeration, score (maximum differentiation 0)” value in assay [2] (day 3) turned out to be 6; in assay [2] (day 6), 6; in assay [2] (day 10), 5.
Regarding `CC\C(=C/C=C(C)/C=C/C=C(C)/C=C/C1=C(C)CCCC1(C)C)C(=O)O` [Example 3B, 5,9-Dimethyl-2-Ethyl-11-(2,6,6-Trimethyl-1-Cyclohexen-1-yl)-2,4,6,8,10-Undecapentaenoic Acid], the IC50 in assay [3] was determined as 13 µM.
Same read-out and setting: the value for `CC(/C=C/c1ccc(OCc2ccccc2)cc1)=C\C=C\C(=O)O` [Example 6, 7-(4-Benzyloxyphenyl)-5-Methyl-Hepta-2,4,6-Trienoic Acid] was 2 µM; that for `COc1cc(C)c(/C=C/C(C)=C/C=C/C(=O)O)c(C)c1C` [Example 8, 7-(4-Methoxy-2,3,6-Trimethylphenyl)-5-Methyl-Hepta-2,4,6-Trienoic Acid] was 10 µM.
Consider `CC1=C(/C=C/C(C)=C/C=C/C(C)=C/C(=O)O)C(C)(C)CCC1` [TRA, trans retinoic acid], for which the activity at 12 µg/mL worked out at 77% in assay [1] (72 h), 53% in assay [1] (120 h) and 36% in assay [1] (240 h). For the same molecule, the “culture staining … (maximum differentiation 10)” value in assay [2] (day 3) came to 3; in assay [2] (day 6), 3; in assay [2] (day 10) it was 2. Further, the results for the “nuclei enumeration, score (maximum differentiation 0)” value in assay [2] (day 3), in assay [2] (day 6) and in assay [2] (day 10) were 5, 5 and 6, respectively. Besides, in assay [3], the IC50 was determined as 90 µM.
Take `CC1=C(/C=C/C(C)=C/C=C/C(C)=C/C=C(\C)C(=O)O)C(C)(C)CCC1` [TTCUA, 2,5,9-trimethyl-11-(2,6,6-trimethyl-1-cyclohexene-1-yl)-2,4,6,8,10-undecapentaenoic acid]: in assay [1] (12 ug/ml), the “percentage uptake in comparison to the standards (TRA, CRA)” value is reported as “up to five fold less”. Further, the figures for the activity at 12 µg/mL in assay [1] (setting [5]), in assay [1] (setting [6]) and in assay [1] (setting [7]) were 31%, 15% and 21%, respectively. The “culture staining … (maximum differentiation 10)” value in assay [2] (day 3) came to 2; in assay [2] (day 6), 0.5; in assay [2] (day 10) it was 1. The “nuclei enumeration, score (maximum differentiation 0)” value in assay [2] (day 3) is given as 6; in assay [2] (day 6), 8.5; in assay [2] (day 10) it was 7.5. Moreover, the anti-differentiation activity result in assay [2] (mouse epidermal cell culture) was “more active in both parameters than the two standards and high”. Moreover, the “ability to reduce comedone size” value in the assay on rabbit ear comedones was “equal to trans retinoic acid (TRA)”. Besides, the “epidermal hyperplasia of the skin” value in assay [4] is “moderate epidermal hyperplasia”. Further, in assay [4] (compared with TRA), the “ability to reduce the amount of horny impaction in the utriculi” value is “equal to TRA”. In addition, the “ability to reduce the size of utriculi (pseudocomedones)” value in assay [4] (compared with TRA) was “equal to TRA”. In addition, the skin wrinkling entry in assay [4] (versus untreated control animals) is reported as “significantly less wrinkling”.

Values taken from US4534979A, “Polyene compounds useful in the treatment of psoriasis and allergic responses” (USV Pharmaceutical Corp., priority 1984, dated 1985).
